The text below walks through data of patent publication US4730042A, “Compounds 1 or 3-hydroxy-4-benzyl-6-methyl-7-(4-isopropylamino-butoxy)-1,3-dihydro[3,4- C]pyridine and 2-methyl-3-(4-isopropyl-aminobutoxy)-4-(1'-morphilinomethyl)-5-hydroxyme thyl-6-benzyl pyridine, useful for treating cardiac arrhythmias” (priority 1985, dated 1988).

Each structure is given as a SMILES string. Bounds are passed on as bounds.

Data set [1] can be described thus: Toxic changes in the ECG and therapeutic index in the rat. The format is in vivo. The conditions noted are these: in vivo, iv, quotient of ECG-toxic dose and antiarrhythmic ED 50. How it is done:
(§1) The test animals used were male Sprague-Dawley rats weighing 180-300 g. Anesthesia was effected with 100 mg/kg of thiobutabarbital, administered intraperitoneally. To induce arrhythmias, aconitine was infused at a dosage rate of 5 μg per kg per min. The test substances were administered intravenously, directly before the beginning of the aconitine infusion. The parameter measured is the amount of aconitine which leads to the first signs of arrhythmias (disappearance of P, ventricular extrasystoles and tachycardia) in the ECG of the animals. In the case of untreated animals, the arrhythmogenic aconitine dose was 16.5±0.34 μg/kg (n=120). The dose which causes a 50% increase was determined from the linear relationship between log dose (mg/kg) of the test substances and the relative increase in the arrhythmogenic aconitine dose (Δ%).
(§2) The dose of test substance which causes toxic changes in the ECG (ST depression, disappearance of P, extrasystoles) was also determined. The quotient of the ECG-toxic dose and the antiarrhythmic ED 50 was evaluated as a measure of the therapeutic index of the novel compounds.

Data set [2] deals with ECG (ST depression, disappearance of P, extrasystoles). The data set is described as above. The format is in vivo. The conditions noted are these: i.v., toxic effect in the ECG (occurrence of extrasystoles). The procedure:
as §1, §2

Data set [3] concerns aconitine-induced arrhythmia. The data set is described as follows: Antiarrhythmic effect on the aconitine-induced arrhythmia in anesthetized rats. Type of data set: in vivo, male Sprague-Dawley rats. The conditions noted are these: for ED50: Rattus norvegicus, iv, read-out: Antiarrhythmic effect ED 50; for Antiarrhythmic effect, maximum effect / maximum effect compared with barucainid, in words: rat; for Antiarrhythmic effect, maximum effect: i.v., maximum relative increase in the arrhythmogenic aconitine dose; for maximum effect compared with barucainid, in words: versus barucainid. The procedure:
The novel compounds have a powerful antiarrhythmic action and are useful for the therapy of cardiac arrhythmias. The pharmacological investigations to determine the antiarryhythmic action were carried out using the antiarrhythmic barucainid as a comparison.
as §1
The maximum effect achieved (Δ%) is evaluated as a further criterion of the antiarrhythmic efficacy.

For the molecule `Cc1nc(Cc2ccccc2)c2c(c1OCCCCNC(C)C)COC2` [Barucainid, reference compound], in data set [1], the selectivity ratio is 5.13. In data set [2], this molecule showed an ECG-toxic dose of 10.0 mg/kg. Further, in data set [3], the ED50 worked out at 1.95 mg/kg and the “Antiarrhythmic effect, maximum effect” value is 105 Δ %.
Take `Cc1nc(Cc2ccccc2)c(CO)c(CN2CCOCC2)c1OCCCCNC(C)C.Cl.Cl.Cl` [Example 1, 2-methyl-3-(4-isopropylaminobutoxy)-4-(1'-morpholinomethyl)-5-hydroxymethyl-6-benzylpyridine trihydrochloride]: the selectivity ratio in data set [1] came to 11.3. The ECG-toxic dose in data set [2] stood at 2.15 mg/kg. For the same molecule, in data set [3], the ED50 came to 0.19 mg/kg and the “Antiarrhythmic effect, maximum effect” value was 111 Δ %.
On to `Cc1nc(Cc2ccccc2)c2c(c1OCCCCNC(C)C)C(O)OC2.Cl.Cl` (centres unmarked) [Example 2, 1-hydroxy-4-benzyl-6-methyl-7-(4-isopropylaminobutoxy)-1,3-dihydrofuro[3,4-C]pyridine dihydrochloride], for which the selectivity ratio in data set [1] is over 9.9. This molecule also returned an ECG-toxic dose in data set [2] of over 4.64 mg/kg. In data set [3], the ED50 came out at 0.468 mg/kg; the “Antiarrhythmic effect, maximum effect” value is recorded as 239 Δ %; the “maximum effect compared with barucainid, in words” value is reported as “superior to barucainid”.
In the case of `Cc1nc(Cc2ccccc2)c2c(c1OCCCCNC(C)C)COC2O.Cl.Cl` (centres unmarked) [Example 3, 3-hydroxy-4-benzyl-6-methyl-7-(4-isopropylaminobutoxy)-1,3-dihydrofuro[3,4-C]pyridine dihydrochloride], the selectivity ratio in data set [1] was 14.4. The molecule also showed an ECG-toxic dose in data set [2] of 10 mg/kg. In data set [3], the ED50 came out at 0.695 mg/kg; the “Antiarrhythmic effect, maximum effect” value was 276 Δ %; the “maximum effect compared with barucainid, in words” value is “superior to barucainid”.
In the case of `Cc1nc(Cc2ccc(O)cc2)c2c(c1OCCCCNC(C)C)COC2` [Example 4, 4-(p-hydroxybenzyl)-6-methyl-7-(4-isopropylaminobutoxy)-1,3-dihydrofuro[3,4-C]pyridine], the selectivity ratio in data set [1] was determined as 17.3. The molecule further returned an ECG-toxic dose in data set [2] of 46.4 mg/kg. Also, in data set [3], the ED50 worked out at 2.69 mg/kg; the “Antiarrhythmic effect, maximum effect” value is 263 Δ %; the “maximum effect compared with barucainid, in words” value was “superior to barucainid”.
